Earlier results on three compounds are cited in patent publication US7204996B2, “Method of cancer treatment” (Board of Regents, The University of Texas System, priority 1999, dated 2007).

Data set [1] deals with MDR overexpressing HL-60 cells. To be noted: for resistance index decrease on coincubation with verapamil: in the presence of verapamil.

`C[C@@H]1O[C@@H](O[C@H]2C[C@](O)(C(=O)CO)Cc3c(O)c4c(c(O)c32)C(=O)c2ccccc2C4=O)[C@H](I)[C@H](O)[C@H]1O` [Annamycin, (7S,9S)-4-demethoxy-7-O-(2,6-dideoxy-2-iodo-alphamannopryanosyl) adriamycinone]: the “solubility in water solutions” value is reported as “completely insoluble”. In data set [1] (MDR overexpressing HL-60 cells), the cytotoxicity entry is given as “cytotoxic”. In addition, the resistance index entry in data set [1] (compared with idarubicin and doxorubicin) was “lower than that of idarubicin and doxorubicin”. Also, the “resistance index decrease on coincubation with verapamil” value (“resistance index decrease” below) in data set [1] is reported as “did not change”.

On to `COc1cccc2c1C(=O)c1c(O)c3c(c(O)c1C2=O)C[C@@](O)(C(=O)CO)C[C@@H]3O[C@H]1C[C@H](N)[C@H](O)[C@H](C)O1` [doxorubicin, reference compound], for which, in data set [1], the “resistance index decrease” value is 4.5 fold.

In the case of `CC(=O)[C@]1(O)Cc2c(O)c3c(c(O)c2[C@@H](O[C@H]2C[C@H](N)[C@H](O)[C@H](C)O2)C1)C(=O)c1ccccc1C3=O` [idarubicin, reference compound], the “resistance index decrease” value in data set [1] is given as 2 fold.
